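Compound exposure: 48 hours, 5 concentrations, 96-well plates. GI50 is the concentration that inhibits growth by half.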 Activity calls are given as the source filed them. Cut-off read from the data, not from the text of the source: active = GI50 up to about 1.1 µM and inactive = higher. Where only a bound is given, the exact number is not on record here.

Experimental findings from ChEMBL document CHEMBL1201862, “PubChem BioAssay data set” (2004) are described below.

Common to all, as to assay: DTP human tumour cell line panel, 48 h
Assay [1] relates to A498.
In assay [2] the test system is TK-10.
Assay [3] relates to HOP-62.
Assay [4] relates to MCF7.
Assay [5] relates to Malme-3M.
The test system of assay [6] is SR.
Assay [7] has as its system HOP-92.
Assay [8] deals with OVCAR-5.
Assay [9] relates to SK-MEL-2.
In assay [10] the test system is NCI/ADR-RES.
In assay [11] the test system is SF-539.
Assay [12] relates to M14.
Assay [13] has as its system DU-145.
Assay [14] relates to SF-295.
Assay [15] concerns Hs-578T.
For assay [16], the system named is UACC-62.
The subject of assay [17] is COLO 205.
Assay [18] has as its system HT-29.
The test system of assay [19] is HCC 2998.

What is called GI50 is the concentration that inhibits growth by half. For the compound `COc1ccc(C(=O)/C=C/c2ccc(O)c(O)c2)c(OC)c1`, the GI50 in assay [1] is 4.5 µM (inactive); in assay [2], 6.14 µM (inactive); in [3] it was 4.32 µM (inactive); in assay [4], 0.301 µM (active); in [5] it was 4.65 µM (inactive); in [6], 0.337 µM (active). Further, the GI50 in assay [7] was 28.8 µM (inactive); in assay [8], 15.6 µM (inactive); in assay [9], 2.77 µM (inactive); in [10], 2.75 µM (inactive); in assay [11] it was 0.834 µM (active); in [12], 3.99 µM (inactive). Besides, the GI50 in assay [13] was 3.16 µM (inactive); in [14], 3.66 µM (inactive); in [15] it was 2.19 µM (inactive); in assay [16], 2.98 µM (inactive); in assay [17], 15.1 µM (inactive); in [18], 7.76 µM (inactive). In addition, the GI50 in assay [19] is 1.21 µM (inactive).

In the case of `COC(=O)C1C(O)C(C)C(O)C(C)(O)C=C(C)C2=C3C(=C(C)C(=O)c4c(O)c(c(C)c(OC(C)=O)c43)NC(=O)C(C)=C/C=C\C(C)(O)C(O)C(C)C1O)OCO2` (stereo not given), the GI50 in assay [1] was > 100 µM (inactive); in [2], > 100 µM (inactive); in assay [3], > 100 µM (inactive); in [4] it was 41.3 µM (inactive); in assay [5] it was 33.7 µM (inactive); in assay [6], 49.4 µM (inactive). Besides, the GI50 in assay [7] is 24.7 µM (inactive); in assay [8], > 100 µM (inactive); in assay [9], 22.9 µM (inactive); in assay [10], > 100 µM (inactive); in assay [11], > 100 µM (inactive); in [12] it was 43.6 µM (inactive). The GI50 in assay [13] is > 100 µM (inactive); in assay [14], > 100 µM (inactive); in assay [15], > 100 µM (inactive); in assay [16], 53.8 µM (inactive); in assay [17] it was 24.4 µM (inactive); in assay [18], 62.2 µM (inactive). In assay [19], the GI50 was 57.4 µM (inactive).

For `COc1cc(/C=C/C(=O)C2(C(=O)/C=C/c3cc(OC)c(OC)c(OC)c3)CCCCC2)cc(OC)c1OC`, the GI50 in assay [1] is > 100 µM (inactive); in assay [2], 34.3 µM (inactive); in [3], 55.6 µM (inactive); in assay [4], 27.6 µM (inactive); in assay [5] it was 37.6 µM (inactive); in assay [6] it was 19.4 µM (inactive). Moreover, the GI50 in assay [7] is 1.22 µM (inactive); in [8], 94.2 µM (inactive); in assay [9], > 100 µM (inactive); in assay [10], 32.1 µM (inactive); in [11], 19 µM (inactive); in assay [12], 29.9 µM (inactive). Also, the GI50 in assay [13] was 32.7 µM (inactive); in assay [14] it was 34.8 µM (inactive); in assay [15], 29.6 µM (inactive); in [16], 26.2 µM (inactive); in assay [17] it was 78.9 µM (inactive); in [18] it was 35.7 µM (inactive). Besides, the GI50 in assay [19] is 58.6 µM (inactive).

For the compound `CCOc1cc(NC(C)=O)ccc1C(=O)NN1C(=O)CSC1c1ccc(O)c(OC)c1` (stereo not given), the GI50 in [1] is > 100 µM (inactive); in assay [2] it was 6.67 µM (inactive); in [3], > 100 µM (inactive); in assay [4] it was 44.7 µM (inactive); in assay [5], 46.8 µM (inactive); in assay [6] it was 50.9 µM (inactive). The GI50 in [7] was 59.7 µM (inactive); in assay [8] it was > 100 µM (inactive); in assay [9], 49 µM (inactive); in [10] it was 30.8 µM (inactive); in assay [11], > 100 µM (inactive); in assay [12], 50.4 µM (inactive). Besides, the GI50 is > 100 µM (inactive) in assay [13]; 50.8 µM (inactive) in [14]; 82.4 µM (inactive) in [15]; 50.4 µM (inactive) in assay [16]; 33.1 µM (inactive) in [17]; 73.6 µM (inactive) in assay [18]. For the same compound, in assay [19], the GI50 is 32.1 µM (inactive).

Regarding `Cc1ccc(O)c(C(c2ccc(C(c3cc(C)ccc3O)c3cc(C)ccc3O)cc2)c2cc(C)ccc2O)c1`, the GI50 in [1] was 1.56 µM (inactive); in assay [2], 1.56 µM (inactive); in assay [3], 1.92 µM (inactive); in assay [4] it was 2.31 µM (inactive); in assay [5] it was 1.88 µM (inactive); in assay [6], 2.62 µM (inactive). The GI50 in assay [7] was 2.32 µM (inactive); in assay [8] it was 1.84 µM (inactive); in [9], 1.86 µM (inactive); in assay [10] it was 1.88 µM (inactive); in [11] it was 1.75 µM (inactive); in [12] it was 1.8 µM (inactive). The GI50 in assay [13] was 1.74 µM (inactive); in assay [14], 2.06 µM (inactive); in assay [15], 2.39 µM (inactive); in [16], 1.71 µM (inactive); in assay [17], 1.33 µM (inactive); in [18], 1.87 µM (inactive). The GI50 in assay [19] is 1.8 µM (inactive).

For the compound `CC1CC[C@@]2(OC1)OC1C[C@H]3[C@@H]4CC[C@H]5CC(OC6OC(CO)C(O)C(OC7OC(CO)C(OC8OC(CO)C(O)C(OC9OC(CO)C(O)C(O)C9O)C8OC8OC(CO)C(O)C(O)C8O)C(O)C7O)C6O)[C@H](O)CC5(C)[C@H]4CCC3(C)C1[C@@H]2C` (stereo not given in full), the GI50 in assay [1] is 1.06 µM (active); in assay [2], 5.57 µM (inactive); in assay [3] it was 2.28 µM (inactive); in assay [4], 1.66 µM (inactive); in assay [5], 8.18 µM (inactive); in assay [6], 1.11 µM (active). Besides, the GI50 is 4.88 µM (inactive) in assay [7]; 5.33 µM (inactive) in assay [8]; 3.27 µM (inactive) in assay [9]; 4.72 µM (inactive) in assay [10]; 1.87 µM (inactive) in [11]; 9.04 µM (inactive) in assay [12]. Besides, the GI50 in assay [13] was 5.47 µM (inactive); in [14] it was 2.99 µM (inactive); in assay [15], 1.84 µM (inactive); in [16] it was 8.69 µM (inactive); in assay [17], 1.95 µM (inactive); in assay [18], 3.52 µM (inactive). The GI50 in [19] is 1.43 µM (inactive).

For the compound `C(=N\Nc1ccc(-c2nc3ccccc3[nH]2)cc1)/c1c(-c2ccc(Cc3ccccc3)cc2)[nH]c2ccccc12`, the GI50 is 11.4 µM (inactive) in assay [1]; 21.5 µM (inactive) in [2]; 19.6 µM (inactive) in assay [3]; 5.06 µM (inactive) in [4]; 2.49 µM (inactive) in [5]; 2.15 µM (inactive) in assay [6]. The GI50 in [7] was 4.09 µM (inactive); in assay [8], 26.1 µM (inactive); in assay [9] it was 3.56 µM (inactive); in assay [10], 5.31 µM (inactive); in assay [11] it was 5.74 µM (inactive); in [12], 4.48 µM (inactive). Further, the GI50 was 16.8 µM (inactive) in assay [13]; 2.56 µM (inactive) in [14]; 2.57 µM (inactive) in [15]; 7.69 µM (inactive) in assay [16]; 3.94 µM (inactive) in assay [17]; 3.67 µM (inactive) in assay [18]. In assay [19], the GI50 was 3.83 µM (inactive).

With `O=C1C2CC(Cl)C(SSC3CC4C(=O)N(SC(Cl)(Cl)C(Cl)Cl)C(=O)C4CC3Cl)CC2C(=O)N1SC(Cl)(Cl)C(Cl)Cl` (stereo not given), the GI50 in assay [1] was 2.81 µM (inactive); in assay [2], 2.59 µM (inactive); in [3], 2.81 µM (inactive); in assay [4] it was 1.67 µM (inactive); in assay [5], 1.51 µM (inactive); in assay [6], 0.229 µM (active). The GI50 in assay [7] was 1.61 µM (inactive); in [8], 17 µM (inactive); in assay [9] it was 1.53 µM (inactive); in [10] it was 2.06 µM (inactive); in assay [11], 2.32 µM (inactive); in [12], 1.21 µM (inactive). The GI50 in assay [13] was 2.6 µM (inactive); in [14], 5.13 µM (inactive); in assay [15], 2.37 µM (inactive); in assay [16] it was 1.69 µM (inactive); in assay [17] it was 1.78 µM (inactive); in [18] it was 1.77 µM (inactive). Besides, the GI50 in assay [19] was 4.43 µM (inactive).

For the compound `COC(=O)c1cc(C#N)[nH]c1-c1ccc(Br)s1`, the GI50 in assay [1] was 1.03 µM (active); in assay [2] it was 13 µM (inactive); in assay [3], 8.39 µM (inactive); in assay [4], 0.459 µM (active); in assay [5], 7.14 µM (inactive); in assay [6], 16.8 µM (inactive). Further, the GI50 in [7] is 4.1 µM (inactive); in assay [8], 11.2 µM (inactive); in [9] it was 6.55 µM (inactive); in assay [10], 10.3 µM (inactive); in [11], 12.8 µM (inactive); in [12], 9.73 µM (inactive). The GI50 in [13] is 10.8 µM (inactive); in assay [14], 8.41 µM (inactive); in assay [15] it was 5.74 µM (inactive); in assay [16] it was 11.6 µM (inactive); in [17], 14.1 µM (inactive); in [18] it was 12.4 µM (inactive). In addition, the GI50 in assay [19] is 17.9 µM (inactive).

In the case of `Cc1cnc2[nH]c(-c3cccc(F)c3)cc(=O)c2c1`, the GI50 is 0.0579 µM (active) in [1]; 0.161 µM (active) in assay [2]; 0.0662 µM (active) in [3]; 0.115 µM (active) in assay [4]; 0.0232 µM (active) in assay [5]; 0.0229 µM (active) in assay [6]. Further, the GI50 was 1.4 µM (inactive) in assay [7]; 0.0738 µM (active) in [8]; 0.0802 µM (active) in assay [9]; 0.0146 µM (active) in assay [10]; 0.0326 µM (active) in [11]; 0.0342 µM (active) in assay [12]. Also, the GI50 in assay [13] was 0.0459 µM (active); in assay [14] it was 0.0322 µM (active); in assay [15] it was 0.0121 µM (active); in [16], 0.0392 µM (active); in assay [17], 0.0214 µM (active); in assay [18] it was 0.0308 µM (active). The GI50 in assay [19] was 0.111 µM (active).
